# From patent US20220177877A1, “HIGHLY MULTIPLEXED BASE EDITING” (President and Fellows of Harvard College, priority 2019, published 2022)
# What was measured:
# LINE-1 [1] = experiment: FACS single cell direct NGS of targeted deamination, HEK 293T; format: cell-based, human; details: for Mean target deamination % / Percent of cells with targeted deamination / Number of cells with targeted deamination: HEK 293T; for Mean target deamination % / Percent of cells with targeted deamination: Day 2; for Number of cells with targeted deamination: Day 2, 96 analyzed cells
# Method: To quantify early genetic editing in cells transfected with Cas9/BE and gRNA expression plasmids, single cells were sorted and prepared as follows. Two days post-transfection, single cells were FACS-sorted into 96-well PCR plates containing 10 μL of QUICKEXTRACT™ DNA Extraction Solution (Epicentre Cat. #QE09050) per well and genomic DNA (gDNA) was extracted using the manufacturer's protocol. Briefly, the sorted plates were sealed, vortexed and heated at 65° C. for 6 minutes then 98° C. for 2 minutes. The NGS library was prepared as described later below.
# (§1) Library preparation was conducted as previously described^5.
# LINE-1 [2] = experiment: Single cell clonal isolation and sequence verification of live edited HEK 293T clones; details: for Mean target deamination % / Number of cells with targeted deamination / Percent of cells with targeted deamination: HEK 293T, Day 14; for non-specific nucleotide conversions in gRNA and PAM: most highly edited clone versus parental 293T control
# Method: (§2) Single cells were FACS-sorted into flat bottom 96-well plates containing 100 μL of DMEM with 10% FBS and 1% Penicillin/Streptomycin per well. Sorted plates were incubated for ˜14 days until well-characterized colonies were visible, with periodic media changes performed as necessary. To extract gDNA, the cells were first detached using 30 μL TRYPLE™ Express (Thermofisher Cat. #12604021) and neutralized with 30 μL growth media. Then, 4 μL of the resulting cell suspension was transferred to 10 μL of QE. Genomic DNA was extracted according to manufacturer's protocol, as described previously.
# (§3) Library preparation was conducted as previously described^5. Briefly, genomic DNA was amplified using locus-specific primers attached to part of the Illumina adapter sequence. A second round of PCR included the index sequence and the full Illumina adapter. All PCRs were carried out using KAPA HiFi HotStart ReadyMix (KAPA Biosystems KK2602) according to the manufacturer's thermocycler conditions. Libraries were purified using gel extraction (Qiagen Cat. #28706), quantified using Nanodrop and pooled together for deep sequencing on the MiSeq using 150 paired end (PE) reads.
# (§4) All paired end reads were aligned to the reference genome using bowtie2, and the resulting alignment files were converted to bam, sorted, indexed, and variant called using samtools^7. All SNV data within a 30 bp window from the 5′ start of the gRNA proceeding through the PAM and extending an additional seven bp's (for a 20 bp gRNA) are reported to analyze the editing window and purity of editing.
# LINE-1 [3] = experiment: NGS base editing deamination analysis, bulk transfected HEK 293T; format: cell-based, human; details: for gRNAs with above control levels of base editing in genomic DNA: HEK 293T, LINE-1 gRNAs
# Method: as §1
# LINE-1 [4] = test system: LINE-1
# Method: as §2, §3, §4
# LINE-1 [5] = experiment: Line-1 subfamily analysis and matches to HL1gR4 (HL1gR4 PCR products); parameters: species or system human; details: for Reads: Total Reads 35520
# [6] = 293T, HL1gR4, two days post-transfection
# [7] = HL1gR6, 3 days after transfection
# Method for single-locus targets: HEK 293T cells were obtained from ATCC with verification of cell line identification and mycoplasma negative results. They were expanded using 10% fetal bovine serum (FBS) in high-glucose DMEM with glutamax passaging at a typical rate of 1:100 and maintained at 37° C. with 5% CO2. Transfection was conducted using Lipofectamine 2000 (ThermoFisher Catalogue #11668019) using the protocol recommended by the manufacturer with slight modifications outlined below. 24 hours before transfection ˜1.0×10^5 cells were seeded per well in a 12-well plate along with 1 mL of media. A total of 2 μg of DNA and 2 μL of Lipofectamine 2000 were used per well. For Cas9 plasmids, the DNA content per well was 1 μg of pCas9_GFP mixed with 1 μg of gRNA-expressing plasmid. For BE plasmids, 1.5 μg of BE was mixed with 0.5 μg of gRNA plasmid. In the dBE vs nBE comparison used to generate FIGS. 4A-4C, Pifithrin-α (10 ng/μ1) from Sigma-Aldrich P4359 (source #063M4741V, Batch #0000003019) was added to the media 30 minutes before transfection and maintained in the first day media change.
# Raw Illumina sequencing data was demultiplexed using bcl2fastq. All paired end reads were aligned to the reference genome using bowtie2^49 and the resulting alignment files were parsed for their cigar string to determine the position and size of all indels within each read using a custom perl script (https://github.com/CRISPRengineer/mutation_indel). All indels that were sequenced in both the forward and reverse reads were summed across all reads and reported for each sample along with the total number of reads. Indels within a 30 bp window from the 5′ start of the gRNA proceeding through the PAM and extending an additional seven bp's (for a 20 bp gRNA) were counted and summed for each sample.
# as §4
substance,measurement,setting,value
"dCBE4: nick-less dCas9 cytidine base editor (H840A), SEQ ID NO: 107",indel activity,single-locus targets,reduced to background levels
same,improvement in editing efficiency over CBE2,"single-locus targets; 293T cells, day five",2.38 fold
same,reduction in efficiency compared to nicking counterparts,"single-locus targets; 293T cells, day five",34.7%
"nCBE3: rAPOBEC1-XTEN-nCas9-UGI-NLS, SEQ ID NO: 10, Addgene #73021 [reference compound]",mean deamination frequency compared with nCBE4-gam,LINE-1 [1]; [6],significantly higher
same,fate of edited cell lines before day 30,"LINE-1 [2]; 293T, HL1gR4",died
"nABE: ecTadA(wt)-linker(32aa)-ecTadA*(7.10)-linker(32aa)-nCas9-NLS, SEQ ID NO: 15, Addgene #102919",gRNAs with above control levels of base editing in genomic DNA,LINE-1 [3],4 out of 5
same,editing efficiency,LINE-1 [3]; [7],4.94%
same,loci edited,LINE-1 [3]; [7],~1290 loci
same,Mean target deamination %,LINE-1 [1],5.32%
same,Percent of cells with targeted deamination,LINE-1 [1],60.4%
same,Number of cells with targeted deamination,LINE-1 [1],58
same,decrease in editing efficiency at the early timepoint,LINE-1 [1]; nABE 5.32% versus dABE 1.45%,3.67 fold
same,Number of analyzed cells,LINE-1 [4],16
same,total number of chromosomal aberrations of top edited clones,HEK 293T,not significantly different than control groups
same,Mean target deamination %,LINE-1 [2],0.88%
same,Number of cells with targeted deamination,LINE-1 [2],4
same,Percent of cells with targeted deamination,LINE-1 [2],25%
same,non-specific nucleotide conversions in gRNA and PAM,LINE-1 [2],not
"dCBE4-gam: nick-less dCas9 cytidine base editor with mu-gam (H840A), SEQ ID NO: 108",mean target nucleotide deamination frequency compared to nBE equivalents,"LINE-1 [1]; 293T, HL1gR4, 2 days after transfection",significant reductions
same,Mean target deamination %,LINE-1 [1],4.43%
same,Percent of cells with targeted deamination,LINE-1 [1],41.7%
same,Number of cells with targeted deamination,LINE-1 [1],40
same,Number of analyzed cells,LINE-1 [4],29
same,indel activity,single-locus targets,reduced to background levels
same,total number of chromosomal aberrations of top edited clones,HEK 293T,not significantly different than control groups
same,Mean target deamination %,LINE-1 [2],3.05%
same,Number of cells with targeted deamination,LINE-1 [2],20
same,Percent of cells with targeted deamination,LINE-1 [2],69%
same,increase in mean editing frequency among surviving live clones compared to nicking counterpart,LINE-1 [2]; day 14,2.38 fold
same,non-specific nucleotide conversions in gRNA and PAM,LINE-1 [2],some non-specific nucleotide conversions
"HL1gR4: SpCas9 gRNA targeting LINE-1 ORF2, SEQ ID NO: 54 (guide ATTCTACCAGAGGTACAAGG; chemistry not given here)",Percentage of reads,LINE-1 [5]; # of Mismatches 0,64.1%
same,Reads,LINE-1 [5]; # of Mismatches 0,22780
same,Percentage of reads,LINE-1 [5]; # of Mismatches 1,18.4%
same,Reads,LINE-1 [5]; # of Mismatches 1,6546
same,Percentage of reads,LINE-1 [5]; # of Mismatches 2,3.2%
same,Reads,LINE-1 [5]; # of Mismatches 2,1131
same,Percentage of reads,LINE-1 [5]; # of Mismatches 3,0.4%
same,Reads,LINE-1 [5]; # of Mismatches 3,148
same,Percentage of reads,LINE-1 [5]; # of Mismatches 4,0.2%
same,Reads,LINE-1 [5]; # of Mismatches 4,63
same,Percentage of reads,LINE-1 [5]; # of Mismatches 5,0.0%
same,Reads,LINE-1 [5]; # of Mismatches 5,2
same,Percentage of reads,LINE-1 [5]; # of Mismatches 6,0.1%
same,Reads,LINE-1 [5]; # of Mismatches 6,26
same,Percentage of reads,LINE-1 [5]; # of Mismatches 7,0.0%
same,Reads,LINE-1 [5]; # of Mismatches 7,1
same,Percentage of reads,LINE-1 [5]; # of Mismatches 8,0.0%
same,Reads,LINE-1 [5]; # of Mismatches 8,1
same,Percentage of reads,LINE-1 [5]; # of Mismatches 9,0.0%
same,Reads,LINE-1 [5]; # of Mismatches 9,1
same,Percentage of reads,LINE-1 [5]; # of Mismatches >9,13%
same,Reads,LINE-1 [5]; # of Mismatches >9,4600
"nCBE4-gam: Cas9 nickase-cytidine deaminase-gam, SEQ ID NO: 12, Addgene #100806 [reference compound]",gRNAs with above control levels of base editing in genomic DNA,LINE-1 [3],4 out of 5
same,deamination in the most highly edited single cell,LINE-1 [1]; [6],up to 54.9%
same,estimated loci edited in the most highly edited single cell,LINE-1 [1]; [6],"14,300 loci"
same,Mean target deamination %,LINE-1 [1],6.08%
same,Percent of cells with targeted deamination,LINE-1 [1],65.6%
same,Number of cells with targeted deamination,LINE-1 [1],63
same,C→T deamination in cells after a second round of editing of cloneK,LINE-1 [1]; day 2,up to 36.26%
same,Number of analyzed cells,LINE-1 [4],12
same,total number of chromosomal aberrations of top edited clones,HEK 293T,not significantly different than control groups
same,deamination frequencies of surviving cell lines,"LINE-1 [2]; 293T, HL1gR4, day 30",≤ 1.37 % of LINE-1
same,estimated sites edited in surviving cell lines,"LINE-1 [2]; 293T, HL1gR4, day 30",~356 sites
same,Mean target deamination %,LINE-1 [2],1.28%
same,Number of cells with targeted deamination,LINE-1 [2],4
same,Percent of cells with targeted deamination,LINE-1 [2],33%
same,non-specific nucleotide conversions in gRNA and PAM,LINE-1 [2],some non-specific nucleotide conversions
